This is an account of results in patent publication US12642270B2, “Substituted thiophene carboxamides, thiophene carboxylic acids and derivatives thereof” (Bayer Aktiengesellschaft, priority 2019, dated 2026).

One data set in a line: Log P by HPLC on reversed phase columns (EEC directive 79/831 Annex V.A8). The format is physicochemical. To be noted: method [a]. In outline: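 Values come from retention times calibrated against alkan-2-ones (3–16 carbons) by linear interpolation, using reversed-phase LC-UV per EEC directive 79/831 Annex V.A8. Acetonitrile gradient 10–95% with 0.1% formic acid [a], 0.001 M ammonium acetate [b] or 0.1% phosphoric acid [c]; several values within one method separated by "+".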
For `CCOC(=O)C1(NC(=O)c2sc(Cl)c(Br)c2Br)CCC1` [1.0212], the LogP is 4.24^[a]. On the same count and under the same terms, in the case of `CCOC(=O)C(NC(=O)c1sc(Cl)c(Br)c1Br)C(C)C` (stereo not shown) [1.0213] it was 4.89^[a]. Take `COC(=O)C(CC(F)F)NC(=O)c1sc(Cl)c(Br)c1Br` (stereo not shown) [1.0214]: the LogP was 3.64^[a]. `CCOC(=O)C(CC(C)C)NC(=O)c1sc(Cl)c(Br)c1Br` (stereo not shown) [1.0215]: the LogP was 5.18^[a]. Still for that read-out and setting: in the case of `CCOC(=O)C(CCSC)NC(=O)c1sc(Cl)c(Br)c1Br` (stereo not shown) [1.0216] it was 4.40^[a]; in that of `CCOC(=O)C(Cc1ccccc1)NC(=O)c1sc(Cl)c(Br)c1Br` (stereo not shown) [1.0217], 5.04^[a]; in that of `O=C(NC(Cc1ccccc1)C(=O)O)c1sc(Br)c(Br)c1F` (stereo not shown) [1.0226], 3.22^[a]. As to `O=C(O)CNC(=O)c1sc(Br)c(Br)c1F` [1.0227], the LogP is 2.01^[a]. Same read-out and setting: in the case of `O=C(NC(CO)C(=O)O)c1sc(Br)c(Br)c1F` (stereo not shown) [1.0228] it was 1.77^[a]; in that of `CC(C)CC(NC(=O)c1sc(Br)c(Br)c1F)C(=O)O` (stereo not shown) [1.0229], 3.34^[a]; in that of `NC(=O)CCC(NC(=O)c1sc(Br)c(Br)c1F)C(=O)O` (stereo not shown) [1.0230], 1.65^[a]. Still for that read-out and setting: then `O=C(NC(Cc1c[nH]c2ccccc12)C(=O)O)c1sc(Br)c(Br)c1F` (stereo not shown) [1.0231], with 3.05^[a]; and `CCOC(=O)C1(NC(=O)c2sc(Cl)c(Cl)c2C#N)CC1` [1.0232], with 2.72^[a]. Turning to `CC(NC(=O)c1sc(Br)c(Br)c1F)C(=O)O` (stereo not shown) [1.0233], the LogP is 2.28^[a]. As to `CC(C)C(NC(=O)c1sc(Br)c(Br)c1F)C(=O)O` (stereo not shown) [1.0234], the LogP is 2.97^[a]. Same read-out and setting: then `CCOC(=O)CNC(=O)c1sc(Cl)c(Cl)c1C#N` [1.0236], with 2.52^[a]. Turning to `CCOC(=O)C(CCSC)NC(=O)c1cc(Cl)c(Br)s1` (stereo not shown) [1.0237], the LogP is 3.59^[a]. Same read-out and setting: in the case of `CCOC(=O)C(CCSC)NC(=O)c1cc(Br)c(Cl)s1` (stereo not shown) [1.0238] it was 3.65^[a]; in that of `COC(=O)CNC(=O)c1cc(Cl)c(Br)s1` [1.0239], 2.23^[a]; in that of `COC(=O)CNC(=O)c1cc(Br)c(Cl)s1` [1.0240], 2.36^[a]. As for `COC(=O)CNC(=O)c1sc(C#N)c(Br)c1C` [1.0241], the LogP is 2.14^[a]. Consider `CCOC(=O)C(CCSC)NC(=O)c1sc(C#N)c(Br)c1C` (stereo not shown) [1.0242], for which the LogP was 3.34^[a].

In the case of `COC(=O)C1(NC(=O)c2sc(C#N)c(Br)c2C)CC1` [1.0243], the LogP was 2.26^[a]. Regarding `CCOC(=O)C1(NC(=O)c2sc(C#N)c(Br)c2C)CCC1` [1.0244], the LogP is 3.07^[a]. The same measure, in the same setting: in the case of `CCOC(=O)C(CC(C)C)NC(=O)c1sc(C#N)c(Br)c1C` (stereo not shown) [1.0245] it was 3.85^[a]; in that of `O=C(O)CNC(=O)c1cc(Cl)c(Br)s1` [1.0247], 1.79^[a]; in that of `O=C(O)CNC(=O)c1cc(Br)c(Cl)s1` [1.0248], 1.81^[a]. Take `Cc1c(C(=O)NCC(=O)O)sc(C#N)c1Br` [1.0249]: the LogP is 1.61^[a]. Same read-out and setting: in the case of `Cc1c(C(=O)NC2(C(=O)O)CC2)sc(C#N)c1Br` [1.0250] it was 1.84^[a]; in that of `CCSC(=O)C1(NC(=O)c2sc(Cl)c(Cl)c2C)CC1` [1.0251], 4.08^[a].

With `CCSC(=O)C1(NC(=O)c2sc(Br)c(Cl)c2C)CC1` [1.0252], the LogP is 3.74^[a]. Regarding `CCSC(=O)C1(NC(=O)c2sc(Cl)c(Br)c2C)CC1` [1.0253], the LogP is 3.77^[a].

On to `Cc1c(C(=O)NC(C(=O)O)C2CC2)sc(Br)c1Cl` (stereo not shown) [1.0254], for which the LogP is 2.64^[a].

For the compound `Cc1c(C(=O)NC(C(=O)O)C2CC2)sc(Cl)c1Br` (stereo not shown) [1.0255], the LogP was 2.67^[a].

Consider `NC(=O)CC(NC(=O)c1sc(Br)c(Br)c1F)C(=O)O` (stereo not shown) [1.0256], for which the LogP was 1.66^[a]. On to `CCOC(=O)C(C#N)NC(=O)c1sc(Br)c(Br)c1F` (stereo not shown) [1.0257], for which the LogP is 3.07^[a]. The same measure, in the same setting: then `CCOC(=O)C1(NC(=O)c2sc(C#N)c(Cl)c2C)CC1` [1.0258], with 2.57^[a]. With `COC(=O)C(NC(=O)c1cc(Cl)c(Br)s1)C1CC1` (stereo not shown) [1.0259], the LogP was 3.01^[a]. Same read-out and setting: then `COC(=O)C(NC(=O)c1cc(Br)c(Cl)s1)C1CC1` (stereo not shown) [1.0260], with 3.07^[a]; and `COC(=O)C(NC(=O)c1sc(C#N)c(Br)c1C)C1CC1` (stereo not shown) [1.0261], with 2.75^[a]. On the same count and under the same terms, in the case of `COC(=O)C(NC(=O)c1sc(Br)c(Br)c1I)C1CC1` (stereo not shown) [1.0262] it was 3.81^[a]; in that of `COC(=O)C(NC(=O)c1sc(Cl)c(Cl)c1Br)C1CC1` (stereo not shown) [1.0263], 3.84^[a]; in that of `COC(=O)C(NC(=O)c1sc(Br)c(Br)c1Cl)C1CC1` (stereo not shown) [1.0264], 3.84^[a]. For `O=C(NC1(C(=O)O)CC1)c1sc(Cl)c(Br)c1Br` [1.0265], the LogP is 2.41^[a]. As to `CCOC(=O)C(NC(=O)c1sc(Cl)c(Br)c1C)C1CC1` (stereo not shown) [1.0266], the LogP is 3.81^[a]. In the case of `COC(=O)C(NC(=O)c1sc(Cl)c(Br)c1C)C(=O)OC` [1.0267], the LogP is 3.07^[a].

`CCOC(=O)C(CC1CC1)NC(=O)c1sc(Cl)c(Br)c1C` (stereo not shown) [1.0268]: the LogP was 4.30^[a]. `COC(=O)C(NC(=O)c1sc(Cl)c(Br)c1C)(C1CC1)C1CC1` [1.0269]: the LogP was 3.98^[a].

Still in this data set, the particulars now being: method marked [a].
As for `CCOC(=O)C(NC(=O)c1sc(Cl)c(Br)c1C)C(=O)OCC` [1.0270], the LogP is 3.87^[a]. With `CCOC(=O)C1(NC(=O)c2sc(Cl)c(Br)c2C)CN(C(=O)OC(C)(C)C)C1` [1.0271], the LogP was 4.23^[a].

`CCOC(=O)C(NC(=O)c1sc(Br)c(Cl)c1C)C1CC1` (stereo not shown) [1.0272]: the LogP was 3.77^[a]. `COC(=O)C(NC(=O)c1sc(Br)c(Cl)c1C)C(=O)OC` [1.0273]: the LogP was 3.04^[a].

`CCOC(=O)C(CC1CC1)NC(=O)c1sc(Br)c(Cl)c1C` (stereo not shown) [1.0274]: the LogP is 4.26^[a].

As to `COC(=O)C(NC(=O)c1sc(Br)c(Cl)c1C)(C1CC1)C1CC1` [1.0275], the LogP was 3.94^[a]. For the compound `CCOC(=O)C(NC(=O)c1sc(Br)c(Cl)c1C)C(=O)OCC` [1.0276], the LogP is 3.84^[a]. With `CCOC(=O)C1(NC(=O)c2sc(Br)c(Cl)c2C)CN(C(=O)OC(C)(C)C)C1` [1.0277], the LogP was 4.19^[a]. In the case of `COC(=O)[C@H](CCCNC(=N)N)NC(=O)c1sc(Br)c(Br)c1F` [1.0278], the LogP is 1.66^[a].

Regarding `CCOC(=O)C(CC(C)C)NC(=O)c1sc(Cl)c(Cl)c1C#N` (stereo not shown) [1.0279], the LogP is 4.05^[a]. Still for that read-out and setting: then `CCOC(=O)C(NC(=O)c1sc(Cl)c(Cl)c1C#N)C(C)C` (stereo not shown) [1.0280], with 3.77^[a]; and `COC(=O)C1(NC(=O)c2cc(Br)c(C#N)s2)CC1` [1.0281], with 2.10^[a]; and `N#Cc1sc(C(=O)NC2(C(=O)O)CC2)cc1Br` [1.0282], with 1.70^[a]. With `COC(=O)C1(NC(=O)c2sc(C#N)c(Cl)c2C)CC1` [1.0283], the LogP was 2.21^[a]. Still for that read-out and setting: then `O=C(NC(C(=O)O)C1CC1)c1cc(Cl)c(Br)s1` (stereo not shown) [1.0284], with 2.41^[a]; and `O=C(NC(C(=O)O)C1CC1)c1cc(Br)c(Cl)s1` (stereo not shown) [1.0285], with 2.44^[a]. The same measure, in the same setting: then `Cc1c(C(=O)NC(C(=O)O)C2CC2)sc(C#N)c1Br` (stereo not shown) [1.0286], with 2.19^[a]. Consider `O=C(NC(C(=O)O)C1CC1)c1sc(Cl)c(Cl)c1Br` (stereo not shown) [1.0287], for which the LogP is 2.95^[a]. Consider `O=C(NC(C(=O)NC(C(=O)O)C1CC1)C1CC1)c1cc(Br)c(Cl)s1` (stereo not shown) [1.0288], for which the LogP was 2.49^[a]. `O=C(NC(C(=O)NC(C(=O)O)C1CC1)C1CC1)c1sc(Cl)c(Cl)c1Br` (stereo not shown) [1.0289]: the LogP is 2.97^[a].

Turning to `COC(=O)C1(NC(=S)c2sc(C#N)c(Cl)c2C)CC1` [1.0290], the LogP was 3.04^[a].

As to `Cc1c(C(=O)NC2(C(=O)O)CC2)sc(C#N)c1Cl` [1.0291], the LogP is 1.79^[a]. On to `O=C(NC(C(=O)O)C1CC1)c1sc(Br)c(Br)c1I` (stereo not shown) [1.0292], for which the LogP is 2.97^[a]. Same read-out and setting: in the case of `O=C(NC(C(=O)O)C1CC1)c1sc(Br)c(Br)c1Cl` (stereo not shown) [1.0293] it was 2.94^[a]; in that of `O=C(NC(C(=O)O)C1CC1)c1sc(Br)c(Br)c1F` (stereo not shown) [1.0294], 2.64^[a].

As for `COC(=O)CNC(=O)c1cc(Br)c(F)s1` [1.0295], the LogP is 2.01^[a]. Turning to `COC(=O)CNC(=O)c1sc(F)c(Cl)c1C` [1.0296], the LogP was 2.23^[a]. On the same count and under the same terms, then `CCOC(=O)CNC(=O)c1sc(F)c(Cl)c1C` [1.0297], with 2.59^[a]; and `CCOC(=O)C1(NC(=O)c2sc(F)c(Cl)c2C)CC1` [1.0298], with 2.77^[a]. In the case of `CCOC(=O)C(NC(=O)c1sc(F)c(Cl)c1C)C(C)C` (stereo not shown) [1.0299], the LogP was 3.87^[a]. Same read-out and setting: in the case of `CCOC(=O)C(CCSC)NC(=O)c1sc(F)c(Cl)c1C` (stereo not shown) [1.0300] it was 3.64^[a].

As for `CCOC(=O)C(Cc1ccccc1)NC(=O)c1sc(F)c(Cl)c1C` (stereo not shown) [1.0301], the LogP was 4.15^[a]. The same measure, in the same setting: in the case of `COC(=O)CNC(=O)c1sc(C#N)c(Cl)c1C` [1.0302] it was 2.03^[a]; in that of `CCOC(=O)CNC(=O)c1sc(C#N)c(Cl)c1C` [1.0303], 2.39^[a]. With `CCOC(=O)C(NC(=O)c1sc(C#N)c(Cl)c1C)C(C)C` (stereo not shown) [1.0304], the LogP was 3.47^[a].

In the case of `CCOC(=O)C(CCSC)NC(=O)c1sc(C#N)c(Cl)c1C` (stereo not shown) [1.0305], the LogP is 3.28^[a]. On to `CCOC(=O)C(Cc1ccccc1)NC(=O)c1sc(C#N)c(Cl)c1C` (stereo not shown) [1.0306], for which the LogP was 3.77^[a]. For the compound `COC(=O)CNC(=O)c1cc(F)c(Cl)s1` [1.0307], the LogP is 1.94^[a]. As to `CCOC(=O)C1(NC(=O)c2cc(F)c(Cl)s2)CC1` [1.0308], the LogP was 2.49^[a]. Turning to `CCOC(=O)C(NC(=O)c1cc(F)c(Cl)s1)C(C)C` (stereo not shown) [1.0309], the LogP is 3.44^[a].
